From publication PMC12799421, “Inhibition of constitutive activity of the atypical chemokine receptor 3 by the small-molecule inverse agonist VUF16840” (Molecular Pharmacology, 2025)
Like-named read-outs stand apart in the source and are kept apart here.

What was measured:
ACKR3 = biological target: T1, ACKR3 (Homo sapiens, UniProt P25106); assay: ACKR3 signaling and trafficking sensor assays summarised together (β-arrestin1, GRK2, Rab5a, clathrin A); format: cell-based
T1 construct: expressed in transfected cells; host or cells: HEK293T
T1 sequence (P25106 whole entry): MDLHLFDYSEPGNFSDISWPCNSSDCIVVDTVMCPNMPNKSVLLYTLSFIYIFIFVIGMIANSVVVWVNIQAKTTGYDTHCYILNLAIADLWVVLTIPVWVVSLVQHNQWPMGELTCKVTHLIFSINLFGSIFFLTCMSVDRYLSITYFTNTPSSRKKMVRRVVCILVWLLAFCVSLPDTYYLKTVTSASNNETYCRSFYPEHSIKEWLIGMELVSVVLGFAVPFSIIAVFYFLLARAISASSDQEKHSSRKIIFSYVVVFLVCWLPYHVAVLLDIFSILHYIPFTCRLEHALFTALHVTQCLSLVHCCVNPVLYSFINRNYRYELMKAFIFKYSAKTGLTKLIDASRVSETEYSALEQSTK
Method: For 1·10^6 HEK293T cells, a transfection mix consisting of 2 μg plasmid DNA, 12 μg linear PEI in a total volume of 200 μL 150 mM NaCl was made and thoroughly vortexed. The transfection mix was incubated for 15 minutes and consequently added to a cell suspension with a final concentration of 3·10^5 cells/mL. For functional studies this cell suspension was immediately transferred to a poly-L-lysine-coated white 96-well plate, with 3·10^4 cells per well. […] For BRET-based membrane localization experiments, the 2 μg plasmid DNA consisted of ACKR3-NL (0.05 μg), mVenus-CAAX (0.25 μg), and pcDEF3 vector DNA without insert (1.7 μg).
Next, it was explored whether VUF16840 could also affect a number of additional ACKR3 signaling or trafficking events. Both β-arrestin1 and GRK2 are known to be recruited to hACKR3 upon activation,[10]^,[23]^,[45],[46] and phosphorylation of the C-terminus is found to be crucial for ACKR3 internalization and β-arrestin1/2 recruitment,[10]^,[47]^,[48] mediated at least in part by GRK2.[10]^,[47] Additionally, clathrin A is a structural protein involved in the formation of clathrin-coated vesicles mediating receptor packaging and internalization, whereas Rab5a is a protein highly expressed in early endosomes.[32]^,[49] […] Agonist-induced internalization of ACKR3 was further monitored by measuring the interaction between clathrin A and β-arrestin 2 using a NanoBiT-based protein–protein interaction assay (Fig. 5D).
Fig. 5 Inhibition of both constitutive as well as agonist-induced ACKR3 activity by VUF16840. […] The resulting proximity between ACKR3 and β-arrestin1 (A, E), GRK2 (B, F), or Rab5a (C, G) was determined by bioluminescence resonance energy transfer. Furthermore, an interaction between clathrin A and β-arrestin2 was measured by NLuc complementation, as was determined by quantifying the relative light units (D, H). […]

HA-hACKR3 = biological target: T2, HA-hACKR3 (Homo sapiens, UniProt P25106); assay: [3H]VUF15485 radioligand binding assay; settings: 2 nM [3H]VUF15485, HEK293T membranes
T2 construct: expressed in transfected cells; host or cells: HEK293T (membranes, transient expression)
T2 sequence (P25106 whole entry): as above
Method: Membranes of HEK293T cells that transiently expressed the NLuc-hACKR3 or HA-hACKR3 were produced as previously described.[23] Briefly, 2 million HEK293T cells were seeded per […] and were transfected the following day using a DNA/PEI-mix containing 0.25 μg plasmid DNA encoding for the ACKR3, 4.75 μg pcDEF3 plasmid DNA and 30 μg linear PEI. Two days after transfection, cells were collected in PBS (137 mM NaCl, 2.57 mM KCl, 1.5 mM KH2PO4, 8 mM Na2HPO4) and pelleted by centrifugation. Cell pellets were resuspended in ice-cold membrane buffer (15 mM Tris, 0.3 mM EDTA, 2 mM MgCl2, pH 7.4 at 4 °C) and dounce-homogenized on ice by plunging the pestle 10 times with 1500 rpm. Cell homogenates were subsequently subjected to 2 freeze-thaw cycles using liquid nitrogen. Next, the cell homogenates were centrifuged at 40,000 g and pellets were resuspended in Tris-sucrose buffer (20 mM Tris, 250 mM sucrose, pH 7.4 at 4 °C). […]
Radioligand binding studies were performed as described earlier.[23] […] Filter-bound [^3H]VUF15485 was measured by adding 25 μL MicroScint-O per well to the dried GF/C-plate and radioactivity was quantified using the Wallac Microbeta counter (Perkin Elmer).
The sigmoidal concentration-dependent displacement of binding of the probes [^3H]VUF15485 and CXCL12-A647 by unlabeled ligands were analyzed using GraphPad Prism 8, by fitting a one-site binding model to the data, to determine the pIC50. Mean pIC50 values were determined by averaging fitted values from individual experiments. […] Similarly, sigmoidal, ligand-induced concentration-dependent activation or inhibition of the proximity between ACKR3 and the protein of interest was analyzed using GraphPad Prism 8, by fitting a 3-parameter concentration-response model to the data, to determine pEC50/pIC50 values. Mean pEC50 values and pIC50 values were determined by averaging fitted values from individual experiments. […]
The ACKR3 ligand VUF16840 was evaluated for its binding to hACKR3 in different competition binding assay formats (Fig. 1). […]

[1] = read-out: IC50, displacement of [3H]VUF15485 binding from HA-hACKR3

Row | EC50 (ACKR3; agonist, range over assays, read-out: pEC50 values, recruitment of β-arrestin1 and GRK2 and translocation toward early endosomes (converted)) | IC50 (HA-hACKR3; [1]) | IC50 (ACKR3; 100 nM VUF15485, range over assays, read-out: pIC50 values, inhibition of VUF15485-responses (converted)) | EC50 (ACKR3; inverse agonist, range over all assay setups, read-out: pEC50 values, inhibition of constitutive ACKR3-mediated responses (converted)) | IC50 (HA-hACKR3; mean ± SD, read-out: pIC50, displacement of [3H]VUF15485 binding from HA-hACKR3 (converted)) | SMILES
1 | 7.94 to 39.8 nM | 20 nM |  |  |  | COc1cc(C(=O)N(CCC2CCCN2C)CC(C)=Cc2ccccc2F)cc(OC)c1OC (stereo not drawn) [VUF15485, reference compound]
2 |  | 0.7 nM | 2 to 50.1 nM | 1.58 to 10 nM | 0.794 nM | COc1ccccc1CCNC(=O)C1CN(C2CCCCC2)CCC1NC(=O)c1cc(-c2ccc(F)cc2F)on1 (stereo not drawn) [VUF16840]
